Experimental data from patent publication US7932405B2, “Halogenated ester derivatives of coumarins for the treatment of coagulation disorders” (Aryx Therapeutics, Inc., priority 2007, dated 2011).
Marks after values point to notes of the source that are not given here.

Tests used:
human IKr (hERG) = target: T1, human IKr (hERG) (Homo sapiens, UniProt Q12809); experiment: Whole-cell patch-clamp recording of IKr in stably transfected HEK-293 cells expressing the hERG gene; assay type: cell-based
T1 construct: expressed in transfected cells; host or cells: HEK-293, stably transfected
Experimental: Electrophysiological recordings of IKr in stably transfected HEK-293 cells were made in the whole cell configuration of the patch-clamp technique (Hamill et al, 1981) using an Axopatch 200B amplifier (Axon Instruments, Foster City, Calif.). Patch microelectrodes were pulled from 1.5-mm borosilicate glass tubing using a two-stage vertical pipette puller (Narishige, East Meadow, N.Y.). […] HEK-293 cells were plated in 35 mm plastic cell and tissue culture dishes for 2-3 days. For application of drug-containing solutions to cells, the SF-77B system (Warner Instrument Corp, Hamden, Conn.) was used. Solution exchanges were completed within 20 ms. Current data were digitized online using a DigiData 1200A analog-to-digital board (Axon Instruments) and stored on the hard disc of an IBM compatible Pentium computer (GP7-600 MHz, Gateway Computer, Sioux City, N. Dak.). […]
The effect of warfarin, 2,2,2-trifluoro-1-methyl-1-(trifluoromethyl)ethyl 4-[(4-hydroxy-2-oxo-2H-chromen-3-yl)methyl]benzoate and its corresponding acid metabolite, 4-[(4-hydroxy-2-oxo-2H-chromen-3-yl)methyl]benzoic acid on IKr was studied in a stably transfected HEK-293 cell line using a two-pulse protocol. […] Tail IKr amplitude was measured as the difference between the peak current and baseline current at −50 mV in control and in the presence of ATI-compounds when steady-state block was obtained.

[1] = Broad cellular and biochemical receptor screening assay; conditions: concentrations up to 10 μM
[2] = target: T2, vitamin K epoxide reductase (VKER) (Bos taurus, UniProt Q6B4J2); experiment: Vitamin K epoxide reductase inhibition, bovine liver microsomal preparation, residual vitamin K epoxide by HPLC; assay type: biochemical
T2 construct: Microsomes were prepared from fresh cow liver; from tissue; host or cells: fresh cow liver microsomes
T2 sequence (Q6B4J2 1-163): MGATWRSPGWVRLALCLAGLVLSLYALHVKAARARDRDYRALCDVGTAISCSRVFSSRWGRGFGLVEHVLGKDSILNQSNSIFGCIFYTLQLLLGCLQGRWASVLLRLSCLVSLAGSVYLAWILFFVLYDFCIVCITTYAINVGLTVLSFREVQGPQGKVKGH
Experimental: Compounds of the subject invention were tested against vitamin K epoxide reductase.
Briefly: increasing concentrations of compounds were incubated in the presence of vitamin K epoxide and in the presence of a bovine microsomal preparation containing vitamin K epoxide reductase. The amount of residual vitamin K epoxide at the end of the incubation period was directly proportional to the inhibitory activity of the test compounds on the enzyme.
Microsomes were prepared from fresh cow liver according to the method described in: “Purification of gamma-glutamyl carboxylase from bovine liver. Wu S M, Mutucumarana V P, and Stafford D W. Methods in Enzymology (1997) 282:346-57.”
Serial dilutions of test compounds were prepared as follows: Dissolve the test compounds to a final dilution of 10 mM either in water or in DMSO (if not soluble in water). From this mother solution, prepare 2 further dilutions by diluting it with water: one 200 μM solution and one 5 mM solution. Prepare a series of tubes as follows:
Remove 15 μL from tube 4 and add to tube 5, vortex, then remove 15 μL from tube 5 and add to tube 6, vortex, etc. . . . until 15 μL is added to tube 9. Vortex and then remove 15 μL from tube 9.
Prepare another set of 4 tubes and add 30 μL of water.
A reaction mixture consisting of 600 μL buffer (2.5M NaCl, 0.125M MOPS, pH7.5), 520 μL water, and 150 μL of 10% CHAPS was prepared. The tubes were kept on ice for 5 minutes and then 500 μL of microsomal preparation was added. The mixture was mixed by vortex and kept on ice for 10 min for sufficient solubilization. To this was added 150 μL of vitamin K epoxide solution (1.5 mg/ml in isopropanol), then again vortexed and kept on ice for 5 minutes. An aliquot (70 μL) of this reaction mix was added to each one of the series of tubes prepared as above and containing serial dilutions of test compounds in 30 μL of water. The tubes were then vortexed and then kept on ice for 5 min. To 2 of the water-containing tubes was added 500 μL of a stop reagent consisting of 5 volumes of 50 mM AgNO3 and 5 volumes of isopropanol. These 2 tubes were used to measure a zero value.
The tubes were placed in a 30 C mixer for 3 min and 5 μL of 100 mM DTT solution in water was added. The tubes were then vortexed and kept in the dark without shaking for another 20 min, at the end of which 500 μL of the stop reagent was added.
To each tube was then added 600 μL of a 100 μg/ml solution of vitamin E in hexane, the tubes were capped and then vortexed for 1 minute. The tubes were then centrifuged for 5 min at 5,000 g, and the upper layer (the hexane layer) was transferred to a series of fresh tubes. The hexane was evaporated at room temperature in the dark using a speedvac, and the resulting pellet was resuspended in 100 μL of methanol.
The amount of vitamin K epoxide in each sample was then measured using a HPLC determination method. Residual vitamin K epoxide was then plotted against test compound concentration.

[3] = tested on: pooled human liver microsomes (CYP450 + esterase); experiment: Metabolism in pooled human liver microsomes with NADPH (CYP450 + esterase); assay type: in vitro ADME; conditions: 2 μM final concentration
[4] = tested on: pooled human liver microsomes (esterase); experiment: Metabolism in pooled human liver microsomes without NADPH (esterase alone); assay type: in vitro ADME; conditions: 2 μM final concentration
Experimental: (§1) Pooled human liver microsomes were used as an in vitro model of drug metabolism. These microsomes contain both esterase and CYP450 drug metabolizing enzymes. Pooled human microsomes were suspended in Tris buffer (50 mM, pH 7.4) at a final concentration of 1 mg/mL of microsomal protein. Test compounds dissolved in acetonitrile:DMSO (1:99) were added to a final concentration of 2 μM. Incubations were performed at 37° C. and samples (50 μL) were collected after 5, 15, 30, 60 and 90 minutes and then were precipitated by the addition of 100 μL of acetonitrile containing Internal Standard and centrifuged at 14,000 rpm for 15 min at 4° C. Samples were analyzed by LC/MS/MS for the content of parent drug.
(§2) To determine the role of CYP450 in the metabolism, incubations were run either with or without an NADPH regenerating system−NADPH is an obligate cofactor for CYP450 enzymes. Incubations that included NADPH cofactor represent the total metabolism by CYP450+ esterase. […] Thus, when the relative decline of parent drug observed is greater in the presence of NADPH, the metabolism is CYP450-mediated. When the relative decline is equivalent in the presence and absence of cofactor the metabolism is esterase mediated.

[5] = Control incubation without microsomes (buffer stability); assay type: physicochemical; conditions: 2 μM final concentration, no microsomes; for half-life at 2 μM: buffer without microsomes (control incubation), pH 7.4, read-out: Buffer Est T½
Experimental: Pooled human liver microsomes were used as an in vitro model of drug metabolism. These microsomes contain both esterase and CYP450 drug metabolizing enzymes. […] Test compounds dissolved in acetonitrile:DMSO (1:99) were added to a final concentration of 2 μM. Incubations were performed at 37° C. and samples (50 μL) were collected after 5, 15, 30, 60 and 90 minutes and then were precipitated by the addition of 100 μL of acetonitrile containing Internal Standard and centrifuged at 14,000 rpm for 15 min at 4° C. Samples were analyzed by LC/MS/MS for the content of parent drug.
All of the compounds were stable.

[6] = Metabolism in pooled human liver microsomes with NADPH (CYP450 + esterase); assay type: in vitro ADME; conditions: human, pooled human liver microsomes with NADPH regenerating system, pH 7.4, 2 μM final concentration, read-out: CYP + Esterase Est T½
[7] = Metabolism in pooled human liver microsomes without NADPH (esterase alone); assay type: in vitro ADME; conditions: human, pooled human liver microsomes without NADPH, pH 7.4, 2 μM final concentration, read-out: Esterase Est T½
Experimental: as §1, §2

T1 sequence (Q12809 whole entry): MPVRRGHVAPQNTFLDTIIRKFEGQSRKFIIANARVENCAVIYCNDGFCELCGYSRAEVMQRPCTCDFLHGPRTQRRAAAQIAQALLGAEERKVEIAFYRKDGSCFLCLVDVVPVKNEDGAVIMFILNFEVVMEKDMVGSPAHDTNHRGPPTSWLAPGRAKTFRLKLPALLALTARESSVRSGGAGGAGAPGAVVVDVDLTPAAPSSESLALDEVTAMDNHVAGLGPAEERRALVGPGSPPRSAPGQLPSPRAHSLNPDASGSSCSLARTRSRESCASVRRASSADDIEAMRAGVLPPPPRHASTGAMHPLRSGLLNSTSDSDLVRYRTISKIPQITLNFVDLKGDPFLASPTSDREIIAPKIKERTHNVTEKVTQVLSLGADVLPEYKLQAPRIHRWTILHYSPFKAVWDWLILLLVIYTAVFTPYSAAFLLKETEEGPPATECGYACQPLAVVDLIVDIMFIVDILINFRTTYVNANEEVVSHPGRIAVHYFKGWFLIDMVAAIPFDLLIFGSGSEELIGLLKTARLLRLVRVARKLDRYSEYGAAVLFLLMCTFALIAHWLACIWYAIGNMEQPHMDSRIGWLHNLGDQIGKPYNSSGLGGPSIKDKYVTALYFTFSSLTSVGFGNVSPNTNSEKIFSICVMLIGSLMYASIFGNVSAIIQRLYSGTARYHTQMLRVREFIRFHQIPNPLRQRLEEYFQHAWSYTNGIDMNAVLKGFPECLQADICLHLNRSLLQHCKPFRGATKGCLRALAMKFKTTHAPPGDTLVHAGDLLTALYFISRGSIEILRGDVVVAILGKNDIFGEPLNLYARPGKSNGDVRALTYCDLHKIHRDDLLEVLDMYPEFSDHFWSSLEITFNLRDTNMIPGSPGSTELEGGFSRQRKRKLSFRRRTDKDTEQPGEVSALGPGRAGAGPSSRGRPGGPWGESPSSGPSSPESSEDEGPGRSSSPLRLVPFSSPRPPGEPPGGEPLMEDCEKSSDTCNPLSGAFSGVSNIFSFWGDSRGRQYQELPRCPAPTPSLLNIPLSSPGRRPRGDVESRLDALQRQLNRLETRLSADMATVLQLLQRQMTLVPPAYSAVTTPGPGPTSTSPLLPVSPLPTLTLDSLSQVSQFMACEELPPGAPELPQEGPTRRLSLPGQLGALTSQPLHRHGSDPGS

| SMILES | IC50 (human IKr (hERG)) | activity in broad cellular and biochemical receptor screening [1] | IC50 [2] | CYP + Esterase Est T½ [3] | CYP + Esterase % Stability at 90 min [3] | Esterase Est T½ [4] | Esterase % Stability at 90 min [4] | Buffer % Stability at 90 min [5] | half-life at 2 μM [6] | half-life at 2 μM [7] | half-life at 2 μM [5] |
| --- | --- | --- | --- | --- | --- | --- | --- | --- | --- | --- | --- |
| CC(OC(=O)c1ccc(Cc2c(O)c3ccccc3oc2=O)cc1)(C(F)(F)F)C(F)(F)F [2,2,2-trifluoro-1-methyl-1-(trifluoromethyl)ethyl 4-[(4-hydroxy-2-oxo-2H-chromen-3-yl)methyl]benzoate] | > 100 µM | Nor did either compound exhibit significant activity | – | – | – | – | – | – | – | – | – |
| CC(OC(=O)c1ccc(Cc2c(O)c3ccccc3oc2=O)cc1)C(F)(F)C(F)(F)F (stereo not shown) [drawing 32] | – | – | 4.15 µM | ~0.5 h | 24% | ~0.5 h | 27% | 113% | – | – | – |
| CC(OC(=O)c1ccc(Cc2c(O)c3ccccc3oc2=O)cc1)(C(F)(F)F)C(F)(F)F [drawing 30] | – | – | 5.07 µM | – | 90%** (>90 min) | – | 96% | 92% | > 1.5 h | > 1.5 h | > 1.5 h |
| O=C(O)c1ccc(Cc2c(O)c3ccccc3oc2=O)cc1 [drawing 28] | – | – | > 30 µM | – | 101% | – | – | 99% | > 1.5 h | – | > 1.5 h |
| CC(=O)CC(c1ccccc1)c1c(O)c2ccccc2oc1=O (stereo not shown) [Warfarin, reference compound] | – | – | 3 ± 0.8 µM | – | – | – | – | – | – | – | – |
| CC(OC(=O)c1ccc(Cc2c(O)c3ccccc3oc2=O)cc1)C(F)(F)C(F)(F)F (stereo not shown) [drawing 31] | – | – | 4.02 µM | > 1.5 h | 70% | > 1.5 h | 86% | 123% | – | – | > 1.5 h |
| O=C(O)c1ccc(Cc2c(O)c3ccccc3oc2=O)cc1 [4-[(4-hydroxy-2-oxo-2H-chromen-3-yl)methyl]benzoic acid] | > 1000 µM | Nor did either compound exhibit significant activity | – | – | – | – | – | – | – | – | – |
| CC(OC(=O)c1ccc(Cc2c(O)c3ccccc3oc2=O)cc1)C(F)(F)C(F)(F)F (racemic) | – | – | 3.38 µM | – | 69% | – | 70% | 108% | > 1.5 h | > 1.5 h | > 1.5 h |
